# Laboratory results as given in patent US20240228475A1, “PROCESSES FOR THE PREPARATION OF (S)-2-(2,6-DIOXOPIPERIDIN-3-YL)-4-((2-FLUORO-4-((3-MORPHOLINOAZETIDIN-1-YL)METHYL)BENZYL)AMINO)ISOINDOLINE-1,3-DIONE” (Celgene Corporation, priority 2021, published 2024).
# Columns and labels:
# [1] = Solubility of Compound 1 free base in aqueous at various pH; type: physicochemical; conditions: aqueous solution, aqueous buffer
# Description: (§1) The rate is time and temperature sensitive (Table 1). The isolation of the crystalline bis-besylate salt of Compound 1 avoids the need for a pH swing. Also, the crystalline freebase has poor morphology which makes filtration slow, increasing the risk for racemization.
# [2] = Chiral stability (racemization) of Compound 1 free base in aqueous at various pH; type: physicochemical; conditions: for Chiral Purity: aqueous
# Description: as §1
compound,measurement,setting,value
"O=C1CC[C@H](N2C(=O)c3cccc(NCc4ccc(CN5CC(N6CCOCC6)C5)cc4F)c3C2=O)C(=O)N1 [Compound 1 Free Base, (S)-2-(2,6-dioxopiperidin-3-yl)-4-((2-fluoro-4-((3-morpholinoazetidin-1-yl)methyl)benzyl)amino)isoindoline-1,3-dione]",solubility at 3 h,"[1]; pH 5.3, time 3 h",4500 µg/mL
same,solubility at 4 h,"[1]; pH 6.7, time 4 h",2400 µg/mL
same,solubility at 4 h,"[1]; pH 7.6, time 4 h",400 µg/mL
same,Chiral stability towards aqueous base,"[2]; aqueous base, rate is time and temperature sensitive",racemization was observed
same,Chiral Purity,"[2]; pH 5.3, time 3 h",94.1%
same,Chiral Purity,"[2]; pH 6.7, time 4 h",89.1%
same,Chiral Purity,"[2]; pH 7.6, time 4 h",83.2%
"O=C1CC[C@H](N2C(=O)c3cccc(NCc4ccc(CN5CC(N6CCOCC6)C5)cc4F)c3C2=O)C(=O)N1.O=S(=O)(O)c1ccccc1.O=S(=O)(O)c1ccccc1 [Compound 1 bis-besylate salt, (S)-2-(2,6-dioxopiperidin-3-yl)-4-((2-fluoro-4-((3-morpholinoazetidin-1-yl)methyl)benzyl)amino)isoindoline-1,3-dione bis-besylate salt]",Chiral stability compared to the crystalline freebase,"[2]; isolated solid, compared to crystalline freebase",more stable
